{"source": "patent US20240423245A1", "about": "“CANNABINOIDS FOR IMPROVEMENT OF P[…] LIVESTOCK” (Kansas State University Research Foundation, priority 2021, published 2024)", "key": {"[1]": {"assay": "Plasma cannabinoid concentrations and pharmacokinetics during 14-day industrial hemp feeding", "type": "in vivo, Holstein cattle", "settings": "for number of plasma samples in which cannabinoid was detected: of 288 samples from HEMP (IH) cattle; for detection in plasma: HEMP cattle, doses 0.005 mg/kg CBDVA, 0.2 mg/kg CBGA, 0.1 mg/kg THCA-A; for half-life / Cmax / AUC(0-inf) / AUC(0-t) / MRT inf / Tmax: Holstein, bovine; for MRT inf: read-out: MRT0-∞", "method": "Cattle in the HEMP group were individually fed 25 g IH mixed in 200 g grain placed in rubber feed pans at 07:00 daily for 14 days. The IH was fed at 25 g per animal per day to target a mean dose of CBDA of 5.5 mg/kg. Daily IH feeding was after the daily blood sample for cattle in the HEMP group.\nCattle were blood sampled at predetermined time points from the jugular or coccygeal veins using a needle and vacutainer. Whole blood was collected into tubes containing sodium heparin, EDTA, sodium citrate, and no additives. Blood samples from the HEMP cattle were obtained prior to initial IH feeding (day −1) and 8 and 12 h post-initial IH feeding; then every 12 h (prior to the next IH feeding); then (starting 12 hours after the last IH feeding) every 24 hours for 5 samples or 108 h after the last IH feeding Cattle in the CNTL group were blood sampled −24 h prior to the initial IH feeding; and on day 7, 14 and 19 post-initial IH feeding.\nPlasma cannabinoid concentrations were determined using UPLC-MS methods. All solvents used such as methanol, acetonitrile, isopropanol, formic acid were LC-MS grade. Cannabinoids standards were purchased in individual solutions in methanol (Cerilliant Corporation, Round Rock, TX), including: (±)-cis-11-Nor-9-carboxy-A 9-tetrahydrocannabinol glucuronide (THC-glu), (±)-11-Hydroxy-Δ9-tetrahydrocannabinol (THC-OH), cannabidivarinic acid (CBDVA), cannabidivarin (CBDV), cannabidiol (CBD), cannabidiolic acid (CBDA), Δ9-Tetrahydrocannabinolic acid A (THCA-A), cannabigerolic acid (CBGA), cannabigerol (CBG), Δ9-tetrahydrocannabinol (9-THC), Δ8-tetrahydrocannabinol (8-THC), cannabichromene (CBC), Δ9-tetrahydrocannabivarin (THCV), cannabichromenic Acid (CBCA), cannabinol (CBN), (−)-11-nor-9-Carboxy-Δ9-tetrahydrocannabinol (THC-acid). Cannabinoid analogs used as internal standards were also purchased in solution in methanol at 100 μg/ml (Cerilliant Corporation, Round Rock, TX): (±)-cis-11-Nor-9-carboxy-Δ9-tetrahydrocannabinol glucuronide (THC-glu-d3), Cannabidiol-d3 (CBD-d3), Δ9-Tetrahydrocannabinol-d3 (9-THC-d3), (±)-11-nor-9-Carboxy-D9-tetrahydrocannabinol-d9 (THC-acid-d9), (±)-11-Hydroxy-Δ9-tetrahydrocannabinol-d3 (THC-OH-d3), Cannabichromene-do (CBC-d9). All cannabinoids standards were kept in the freezer at −20° C. On the day of analysis, plasma samples were allowed to thaw. Plasma (samples, quality controls or negative control plasma) were mixed with the internal standard mixture at 200 ng/mL (not added to the negative control sample) and acetonitrile with 0.1% formic acid to precipitate the proteins. The mixture was vortexed for 5 seconds and centrifuge for 5 minutes at 7,000 g. The supernatant was then diluted with ultra-pure […] water before clean-up. The sample was loaded on a solid phase extraction plate using positive pressure nitrogen. Each well was washed twice with 0.25 mL of a mixture of methanol-water (25:75). The compounds were eluted with two-25 μL aliquots of acetonitrile-methanol (90:10) and diluted with 50 μL of water before analysis.\nCannabinoid analysis was performed using an Acquity H UPLC and a TQ-S triple quadrupole mass spectrometer (Waters Corp., Milford, MA). The chromatographic separation was performed with a UPLC column (Eclipse Plus C18, Agilent Technologies, Santa Clara, CA) 100×2.1 mm, 1.8μ, heated at 55° C. The flow rate was set at 0.5 mL/min, the mobile phase consisted of a gradient of acetonitrile (B) and water containing 0.1% formic acid (A) as follow: 0 min: 60% B, 6.50 min: 86% B, 7.50 min-9 min: 100% B, 9.01 m in 12 min: 60% B. The total run time was 12 min. The injection volume was 5 μL. The data acquisition was performed by electrospray ionization in positive and negative mode using multiple reaction monitoring. Linear regression with a weighing factor of 1/X was used and accepted if the coefficient of correlation R^2 was >0.99. Calibration curves were linear from 0.1 to 100 ng/ml for all cannabinoids. […]"}, "[2]": {"settings": "cited from earlier work"}, "[3]": {"settings": "plasma, po, 5.5 mg/kg, geometric mean, IH fed 14 days, target dose 5.5 mg/kg CBDA, n = 8"}, "[4]": {"settings": "plasma, po, 5.5 mg/kg, median, IH fed 14 days, target dose 5.5 mg/kg CBDA, n = 8"}, "[5]": {"settings": "geometric mean, IH fed 14 days, target dose 5.5 mg/kg CBDA, n = 8"}, "[6]": {"settings": "median, IH fed 14 days, target dose 5.5 mg/kg CBDA, n = 8"}, "[7]": {"settings": "plasma, initial hemp feeding period"}}, "note": "Where “and” joins values, the source holds several entries; their conditions need not be identical. Identical values can stand only once. Like-named read-outs stand apart in the source and are kept apart here."}
{"compound": "CCCCCc1cc2c(c(O)c1C(=O)O)C=CC(C)(CCC=C(C)C)O2", "note": "(stereo not shown) [CBCA, cannabichromenic acid]", "values": [{"measurement": "number of plasma samples in which cannabinoid was detected", "setting": "[1]", "result": 93}]}
{"compound": "C=C(C)[C@@H]1CCC(C)=C[C@H]1c1c(O)cc(CCC)c(C(=O)O)c1O", "note": "[CBDVA, cannabidivarinic acid]", "values": [{"measurement": "detection in plasma", "setting": "[1]", "result": "detected in the plasma of all cattle"}]}
{"compound": "C=C(C)[C@@H]1CCC(C)=C[C@H]1c1c(O)cc(CCCCC)c(C(=O)O)c1O", "note": "[CBDA, cannabidiolic acid]", "values": [{"measurement": "half-life", "setting": "[1]; plasma, oral, 5.5 mg/kg, geometric mean, IH fed 14 days, target dose 5.5 mg/kg CBDA, n = 8, read-out: T1/2 (terminal half-life) (converted)", "result": 15, "unit": "h"}, {"measurement": "Cmax", "setting": "[1]; plasma, oral, 5.5 mg/kg, geometric mean, initial hemp feeding period, target dose 5.5 mg/kg CBDA, n = 8", "result": 22, "unit": "ng/mL"}, {"measurement": "AUC(0-inf)", "setting": "[1]; [3]", "result": 13600, "unit": "ng·h/mL"}, {"measurement": "AUC(0-t)", "setting": "[1]; [3]", "result": 13500, "unit": "ng·h/mL"}, {"measurement": "MRT inf", "setting": "[1]; [3]", "result": 822, "unit": "h"}, {"measurement": "half-life", "setting": "[1]; plasma, po, 5.5 mg/kg, geometric mean, IH fed 14 days, target dose 5.5 mg/kg CBDA, n = 8, read-out: T1/2 (terminal half-life) (converted)", "result": 15.3, "unit": "h"}, {"measurement": "Tmax", "setting": "[1]; plasma, po, 5.5 mg/kg, geometric mean, after the initial IH feeding, target dose 5.5 mg/kg CBDA, n = 8", "result": 16.7, "unit": "h"}, {"measurement": "Cmax", "setting": "[1]; plasma, po, 5.5 mg/kg, geometric mean, initial hemp feeding period, target dose 5.5 mg/kg CBDA, n = 8", "result": 22.1, "unit": "ng/mL"}, {"measurement": "AUC(0-inf)", "setting": "[1]; [4]", "result": 13600, "unit": "ng·h/mL"}, {"measurement": "AUC(0-t)", "setting": "[1]; [4]", "result": 13500, "unit": "ng·h/mL"}, {"measurement": "Cmax", "setting": "[1]; [4]", "result": 22.2, "unit": "ng/mL"}, {"measurement": "Tmax", "setting": "[1]; [4]", "result": 24, "unit": "h"}, {"measurement": "MRT inf", "setting": "[1]; [4]", "result": 772, "unit": "h"}, {"measurement": "half-life", "setting": "[1]; plasma, po, 5.5 mg/kg, median, IH fed 14 days, target dose 5.5 mg/kg CBDA, n = 8, read-out: T1/2 (converted)", "result": 14.8, "unit": "h"}, {"measurement": "time to plasma steady state concentrations", "setting": "[1]; daily IH administration, visual inspection of the data", "result": "approximately 7 days"}, {"measurement": "Accumulation (index/ratio)", "setting": "[1]; geometric mean / mean, 14-day feeding period, target dose 5.5 mg/kg CBDA, n = 8, 5.5 mg/kg", "result": "1.5 and 1.52"}, {"measurement": "AUC extrapolated", "setting": "[1]; [5]", "result": 0.38, "unit": "%"}, {"measurement": "λz", "setting": "[1]; [5]", "result": 0.05, "unit": "h⁻¹"}, {"measurement": "AUC extrapolated", "setting": "[1]; [6]", "result": 0.49, "unit": "%"}, {"measurement": "Accumulation", "setting": "[1]; [6]", "result": 1.49}, {"measurement": "λz", "setting": "[1]; [6]", "result": 0.05, "unit": "h⁻¹"}, {"measurement": "geometric mean minimum concentration", "setting": "[1]; [7]", "result": 12.3, "unit": "ng/mL"}, {"measurement": "time of minimum concentration after the initial IH feeding", "setting": "[1]; [7]", "result": 9.3, "unit": "h"}, {"measurement": "maximum CBDA concentration (Cmax), previously reported", "setting": "[2]; earlier published study", "result": 72.7, "unit": "ng/mL"}, {"measurement": "terminal half-life, previously published", "setting": "[2]; earlier published study", "result": 14, "unit": "h"}, {"measurement": "time of peak concentrations post-exposure", "setting": "[2]; single oral dosing of IH", "result": "12 to 24", "unit": "h"}]}
{"compound": "CCCCCc1cc2c(c(O)c1C(=O)O)[C@@H]1C=C(C)CC[C@H]1C(C)(C)O2", "note": "[THCA-A, tetrahydrocannabinolic acid A]", "values": [{"measurement": "detection in plasma", "setting": "[1]", "result": "detected in the plasma of all cattle"}]}
{"compound": "CCCCCc1cc(O)c(C/C=C(\\C)CCC=C(C)C)c(O)c1C(=O)O", "note": "[CBGA, cannabigerolic acid]", "values": [{"measurement": "detection in plasma", "setting": "[1]", "result": "detected in the plasma of all cattle"}]}
{"compound": "C=C(C)[C@@H]1CCC(C)=C[C@H]1c1c(O)cc(CCCCC)cc1O", "note": "[CBD, cannabidiol, reference compound]", "values": [{"measurement": "number of plasma samples in which cannabinoid was detected", "setting": "[1]", "result": 159}]}
